Test system: 379773-124-R-J2-PDC spheroid viability
Test: Anticancer human tumor 379773-124-R-J2-PDC patient-derived endometrial carcinoma cell line growth inhibition [POLQ]
Conditions: spheroids with HUVEC and MSC; for IC50: curve of first compound; for viability, T/C: stronger effect = lower value
Procedure, shortened: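 PDC + HUVEC + MSC complex spheroids; POLQ inhibitors ± partner drugs; top conc. at/near clinical Cmax, else 10 microM (SN-38 1 microM), half-log dilutions; 37 degrees C, 5% CO2.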

[1] = second compound 0.0316 µM, first compound 0.0316 µM
[2] = second compound 0.0316 µM, first compound 0.1 µM
[3] = second compound 0.0316 µM, first compound 0.316 µM
[4] = second compound 0.0316 µM, first compound 1 µM
[5] = second compound 0.0316 µM, first compound 3.16 µM
[6] = second compound 0.0316 µM, first compound 10 µM
[7] = second compound 0.1 µM, first compound 0.0316 µM
[8] = second compound 0.1 µM, first compound 0.1 µM
[9] = second compound 0.1 µM, first compound 0.316 µM
[10] = second compound 0.1 µM, first compound 1 µM
[11] = second compound 0.1 µM, first compound 3.16 µM
[12] = second compound 0.1 µM, first compound 10 µM
[13] = second compound 0.316 µM, first compound 0.0316 µM
[14] = second compound 0.316 µM, first compound 0.1 µM
[15] = second compound 0.316 µM, first compound 0.316 µM
[16] = second compound 0.316 µM, first compound 1 µM
[17] = second compound 0.316 µM, first compound 3.16 µM
[18] = second compound 0.316 µM, first compound 10 µM
[19] = second compound 1 µM, first compound 0.0316 µM
[20] = second compound 1 µM, first compound 0.1 µM
[21] = second compound 1 µM, first compound 0.316 µM
[22] = second compound 1 µM, first compound 1 µM
[23] = second compound 1 µM, first compound 3.16 µM
[24] = second compound 1 µM, first compound 10 µM
[25] = second compound 3.16 µM, first compound 0.0316 µM
[26] = second compound 3.16 µM, first compound 0.1 µM
[27] = second compound 3.16 µM, first compound 0.316 µM
[28] = second compound 3.16 µM, first compound 1 µM
[29] = second compound 3.16 µM, first compound 3.16 µM
[30] = second compound 3.16 µM, first compound 10 µM
[31] = second compound 10 µM, first compound 0.0316 µM
[32] = second compound 10 µM, first compound 0.1 µM
[33] = second compound 10 µM, first compound 0.316 µM
[34] = second compound 10 µM, first compound 1 µM
[35] = second compound 10 µM, first compound 3.16 µM
[36] = second compound 10 µM, first compound 10 µM
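Note: spheroids exposed to drugs for seven days before readout.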
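Throughout, for viability, T/C: percent viability relative to DMSO vehicle control taken as 100%.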

**Q.** With `O=C(c1cc(Cc2n[nH]c(=O)c3ccccc23)ccc1F)N1CCN(C(=O)C2CC2)CC1` + Cc1cccc(N(C)C(=O)C2C(O)CCN2c2nc(C)cc(C(F)(F)F)c2C#N)c1 as the molecule, how does the IC50 (second compound 0.0316 µM) read?
**A.** 6.37 µM

**Q.** What about the IC50 (second compound 0.1 µM) of the same molecule?
**A.** 7.6 µM

**Q.** And the IC50 (second compound 0.316 µM)?
**A.** 8.22 µM

**Q.** What about the IC50 (second compound 1 µM) of the same molecule?
**A.** 8.16 µM

**Q.** And the IC50 (second compound 3.16 µM)?
**A.** 6.72 µM

**Q.** And the IC50 (second compound 10 µM)?
**A.** 6.14 µM

**Q.** And the viability, T/C [1]?
**A.** 79.5%

**Q.** What about the viability, T/C [2] of the same molecule?
**A.** 89.5%

**Q.** What about the viability, T/C [3] of the same molecule?
**A.** 83.8%

**Q.** What about the viability, T/C [4] of the same molecule?
**A.** 80.9%

**Q.** And the viability, T/C [5]?
**A.** 76.8%

**Q.** What about the viability, T/C [6] of the same molecule?
**A.** 32.7%

**Q.** What about the viability, T/C [7] of the same molecule?
**A.** 89.2%

**Q.** And the viability, T/C [8]?
**A.** 89.6%

**Q.** And the viability, T/C [9]?
**A.** 75.7%

**Q.** And the viability, T/C [10]?
**A.** 75.8%

**Q.** What about the viability, T/C [11] of the same molecule?
**A.** 74.1%

**Q.** And the viability, T/C [12]?
**A.** 42.5%

**Q.** And the viability, T/C [13]?
**A.** 90.2%

**Q.** And the viability, T/C [14]?
**A.** 80.2%

**Q.** And the viability, T/C [15]?
**A.** 82.8%

**Q.** And the viability, T/C [16]?
**A.** 85.3%

**Q.** What about the viability, T/C [17] of the same molecule?
**A.** 71.7%

**Q.** And the viability, T/C [18]?
**A.** 45.1%

**Q.** And the viability, T/C [19]?
**A.** 88.3%

**Q.** What about the viability, T/C [20] of the same molecule?
**A.** 87.9%

**Q.** And the viability, T/C [21]?
**A.** 77.7%

**Q.** What about the viability, T/C [22] of the same molecule?
**A.** 83.5%

**Q.** What about the viability, T/C [23] of the same molecule?
**A.** 95.4%

**Q.** And the viability, T/C [24]?
**A.** 42.2%

**Q.** What about the viability, T/C [25] of the same molecule?
**A.** 73.5%

**Q.** What about the viability, T/C [26] of the same molecule?
**A.** 78.4%

**Q.** And the viability, T/C [27]?
**A.** 81.5%

**Q.** What about the viability, T/C [28] of the same molecule?
**A.** 76.7%

**Q.** And the viability, T/C [29]?
**A.** 97.2%

**Q.** And the viability, T/C [30]?
**A.** 33.4%

**Q.** What about the viability, T/C [31] of the same molecule?
**A.** 78.2%

**Q.** What about the viability, T/C [32] of the same molecule?
**A.** 78.9%

**Q.** And the viability, T/C [33]?
**A.** 85.5%

**Q.** What about the viability, T/C [34] of the same molecule?
**A.** 72.4%

**Q.** And the viability, T/C [35]?
**A.** 73.4%

**Q.** And the viability, T/C [36]?
**A.** 33.7%

**Q.** What does the source list for `CCc1cc2c(N3CCc4c(cc(Cn5ccnc5)cc4-c4cn(C)nc4C(F)(F)F)C3=O)ccnc2c(OC)n1` + COC1C(OC(N)=O)C(O)C(Oc2ccc3c(O)c(NC(=O)c4ccc(O)c(CC=C(C)C)c4)c(=O)oc3c2C)OC1(C)C?
**A.** IC50 (second compound 0.0316 µM): 3.42 µM; IC50 (second compound 0.1 µM): 2.6 µM; IC50 (second compound 0.316 µM): 2.42 µM; IC50 (second compound 1 µM): 3.58 µM; IC50 (second compound 3.16 µM): 1.79 µM; IC50 (second compound 10 µM): > 10 µM; viability, T/C [1]: 79.6%; viability, T/C [2]: 68.7%; viability, T/C [3]: 62.5%; viability, T/C [4]: 58.6%; viability, T/C [5]: 52.4%; viability, T/C [6]: 42.6%; viability, T/C [7]: 79.5%; viability, T/C [8]: 64.2%; viability, T/C [9]: 59.7%; viability, T/C [10]: 56.1%; viability, T/C [11]: 52.3%; viability, T/C [12]: 42.3%; viability, T/C [13]: 75.8%; viability, T/C [14]: 68%; viability, T/C [15]: 59.1%; viability, T/C [16]: 57.2%; viability, T/C [17]: 48.2%; viability, T/C [18]: 42.3%; viability, T/C [19]: 66.7%; viability, T/C [20]: 65.4%; viability, T/C [21]: 58.3%; viability, T/C [22]: 58.1%; viability, T/C [23]: 49.5%; viability, T/C [24]: 44.7%; viability, T/C [25]: 77.7%; viability, T/C [26]: 65%; viability, T/C [27]: 55.6%; viability, T/C [28]: 53.4%; viability, T/C [29]: 52%; viability, T/C [30]: 42.1%; viability, T/C [31]: 83.3%; viability, T/C [32]: 59.6%; viability, T/C [33]: 64.2%; viability, T/C [34]: 63.8%; viability, T/C [35]: 51.1%; viability, T/C [36]: 51.1%

**Q.** For `COc1cccc(OCCCN)c1-c1cc(Nc2cnc(C#N)cn2)n[nH]1` + Cc1cccc(N(C)C(=O)C2C(O)CCN2c2nc(C)cc(C(F)(F)F)c2C#N)c1, which IC50 (second compound 0.0316 µM) is on record?
**A.** 0.00672 µM

**Q.** What about the IC50 (second compound 0.1 µM) of the same molecule?
**A.** 0.00643 µM

**Q.** What about the IC50 (second compound 0.316 µM) of the same molecule?
**A.** 0.00604 µM

**Q.** And the IC50 (second compound 1 µM)?
**A.** 0.00631 µM

**Q.** And the IC50 (second compound 3.16 µM)?
**A.** 0.00603 µM

**Q.** What about the IC50 (second compound 10 µM) of the same molecule?
**A.** 0.00619 µM

**Q.** And the viability, T/C (second compound 0.0316 µM, first compound 0.00316 µM)?
**A.** 87.1%

**Q.** And the viability, T/C (second compound 0.0316 µM, first compound 0.01 µM)?
**A.** 30.5%

**Q.** And the viability, T/C [1]?
**A.** 2.41%

**Q.** What about the viability, T/C [2] of the same molecule?
**A.** 2.05%

**Q.** And the viability, T/C [3]?
**A.** 1.74%

**Q.** What about the viability, T/C [4] of the same molecule?
**A.** 1.59%

**Q.** What about the viability, T/C (second compound 0.1 µM, first compound 0.00316 µM) of the same molecule?
**A.** 92.8%

**Q.** What about the viability, T/C (second compound 0.1 µM, first compound 0.01 µM) of the same molecule?
**A.** 23.4%

**Q.** What about the viability, T/C [7] of the same molecule?
**A.** 3.34%

**Q.** What about the viability, T/C [8] of the same molecule?
**A.** 3.31%

**Q.** What about the viability, T/C [9] of the same molecule?
**A.** 2.36%

**Q.** And the viability, T/C [10]?
**A.** 1.82%

**Q.** What about the viability, T/C (second compound 0.316 µM, first compound 0.00316 µM) of the same molecule?
**A.** 85.5%

**Q.** What about the viability, T/C (second compound 0.316 µM, first compound 0.01 µM) of the same molecule?
**A.** 22.3%

**Q.** What about the viability, T/C [13] of the same molecule?
**A.** 3.19%

**Q.** And the viability, T/C [14]?
**A.** 1.9%

**Q.** What about the viability, T/C [15] of the same molecule?
**A.** 1.95%

**Q.** And the viability, T/C [16]?
**A.** 2.25%

**Q.** What about the viability, T/C (second compound 1 µM, first compound 0.00316 µM) of the same molecule?
**A.** 93.4%

**Q.** What about the viability, T/C (second compound 1 µM, first compound 0.01 µM) of the same molecule?
**A.** 21.1%

**Q.** And the viability, T/C [19]?
**A.** 3.23%

**Q.** And the viability, T/C [20]?
**A.** 2.53%

**Q.** And the viability, T/C [21]?
**A.** 2.26%

**Q.** And the viability, T/C [22]?
**A.** 3%

**Q.** And the viability, T/C (second compound 3.16 µM, first compound 0.00316 µM)?
**A.** 84.3%

**Q.** What about the viability, T/C (second compound 3.16 µM, first compound 0.01 µM) of the same molecule?
**A.** 23.2%

**Q.** What about the viability, T/C [25] of the same molecule?
**A.** 3.07%

**Q.** What about the viability, T/C [26] of the same molecule?
**A.** 2.7%

**Q.** And the viability, T/C [27]?
**A.** 2.36%

**Q.** And the viability, T/C [28]?
**A.** 0.99%

**Q.** And the viability, T/C (second compound 10 µM, first compound 0.00316 µM)?
**A.** 88.8%

**Q.** What about the viability, T/C (second compound 10 µM, first compound 0.01 µM) of the same molecule?
**A.** 22.1%

**Q.** And the viability, T/C [31]?
**A.** 4.5%

**Q.** What about the viability, T/C [32] of the same molecule?
**A.** 4.11%

**Q.** And the viability, T/C [33]?
**A.** 2.59%

**Q.** What about the viability, T/C [34] of the same molecule?
**A.** 2.26%

From PubChem BioAssay AID1963848 (Molecular Pharmacology Branch, DTP, NCI, 2024)
